# Assay results taken from US10398751B2, “Pharmaceutical compositions of water soluble peptides with poor solubility in isotonic conditions and methods for their use” (STRONGBRIDGE IRELAND LIMITED, priority 2016, dated 2019).
# Where “and” joins values, the source holds several entries; their conditions need not be identical. Equal values may be shown once. Where a name gives a salt, the structure may show the parent alone.
# Legend:
# [1] = Solubility and surface activity in PBS under physiological conditions (37° C.); type: physicochemical; conditions: PBS pH 7.4, 37° C., COR005 10 mg/ml
# Procedure: Table 6 summarizes the effects of additives on the surface activity profile of COR005 acetate under physiological conditions (37° C.) that emulate the release of COR005 at the injection site.
# [2] = in vivo; parameters: species or system rats; conditions: Sprague-Dawley, rat, sc
# Procedure: The lactic acid vehicle for use in the formulations as shown in Table 7 below was prepared as follows: Formulations for injection into rats were prepared as summarized in Table 8. Subject rats (mean weight of about 370 grams per subject) were injected according to the above dosing schedule in groups of 5 rats per treatment. Baseline tail bleed samples were drawn from the rats at 2 days prior to dosing. […] Blood samples were approximately 300 uL of whole blood collected in commercial K3 EDTA-coated tubes. Subject rats were also observed for injection site reactions for up to 5-7 days post-dosing. Blood samples were kept on ice following collection until the time of centrifugation. Blood samples were processed within 60 minutes from blood collection. Samples were centrifuged at 3000 G for 15 minutes in a refrigerated centrifuge (5° C.). Plasma was withdrawn from the tubes after centrifugation and placed into new, appropriately labeled tubes and stored at −65° C. to −80° C. until transfer. […] Veldoreotide acetate standard was serially diluted with methanol:water (1:9) and added to blank rat plasma to generate calibration standards and QC samples. The calibration samples were stored at −70° C. Frozen samples were then thawed to room temperature. Blank plasma and reagent blank (water) were also prepared. For each 100 uL aliquot of sample, calibrator or QC sample, 25 uL (˜100 ng/mL) of internal standard (octreotide acetate) in methanol:water (1:9) and 600 uL of acetonitrile:formic acid (99:1) were added and the samples vortex mixed for 30 seconds. Samples were diluted by mixing 20 uL of plasma sample with 180 uL of blank plasma and aliquotted at 100 uL prior to addition of the internal standard and acetonitrile:formic acid solutions. Samples were then centrifuged for 10 minutes at 14,000 rpm at 8° C. 450 uL of the upper (organic) layer was then transferred to evaporation tubes and evaporated under nitrogen at about 50° C. Samples were then reconstituted in 200 uL of reconstitution solution (water:acetonitrile:formic acid at 70:30:0.2). Samples were centrifuged for 10 minutes at 4000 rpm at 8° C. 160 uL of each sample was withdrawn and placed in an autosampler vial with conic glass insert and analyzed via LC-MS/MS. Veldoreotide acetate plasma concentrations were then plotted and analyzed using standard pharmacokinetic techniques.
# [3] = Emulsification of cottonseed oil and water for injection; type: physicochemical; conditions: w/o ionic surfactant or hydrotrope
# Procedure: Based on its amphiphilic properties, veldoreotide acetate was evaluated by means of emulsion formulation. […] Thus, veldoreotide acetate may be considered a w/o ionic surfactant or hydrotrope with a hydrophilic lipophilic balance (HLB) of 6.
# The samples were mixed using 25G syringe and vortexed at room temperature.
# Veldoreotide was formulated as a water in oil emulsion using 80% (wt %) cottonseed oil, 20% (wt %) water for injection (WFI) and 1% (wt %) veldoreotide acetate. Specifically, 10 mg of veldoreotide acetate was dissolved in 200 uL WFI in a 5 mL glass vial, 800 mg of cottonseed oil was added and the resulting mixture was stirred under magnetic stirring at room temperature for 15 minutes at 1000 rpm. The emulsion was then viewed under the light microscope and stored under refrigeration. The resulting emulsion was stable and found to be injectable via 27G needle.
# [4] = Pharmacokinetics of IR formulations in minipigs; type: in vivo; conditions: minipig, plasma, sc; for AUC(0-t) / Tmax: minipigs
# [5] = Density, pH and surface tension of solutions (capillary method); type: physicochemical
# Procedure: Tween 80 was used as a control surfactant for comparison. Densities were measured on 1 mL fixed volume samples. […] The effect of veldoreotide acetate on the pH of double distilled water (DDW) was the same at all veldoreotide acetate concentrations. The pH of DDW of 5.0 was reduced to pH 4.5. The effect of veldoreotide acetate on the density of DDW (starting density of DDW was 1.003 g/ml) was concentration dependent from 1.4 mg/ml to 21.5 mg/ml with density ranging from 0.986 to 0.998 g/ml respectively. However, at veldoreotide acetate concentrations of 45 and 102 mg/ml the density was increased above the starting density of DDW. […] The effect of veldoreotide acetate on the surface tension of DDW (starting surface tension was 64.9 dyne/cm) was consistent with veldoreotide acetate behaving as a peptide amphiphile (surfactant). The surface tension of DDW was reduced by veldoreotide acetate at maximum from 64.9 to 45 dyne/cm. In order to elucidate the meaning of this effect, Tween 80 was used as a reference surfactant. Other surfactants include Polexamer 188. The reduction of surface tension induced by Tween 80 was in the range of 40% (from 64.9 dyne/cm to about 39 dyne/cm), in comparison to veldoreotide acetate of 30% (from 64.9 dyne/cm to about 45 dyne/cm). Note that, under these experimental conditions; the effect of Tween 80 indicated a concentration-effect relationship. Whereas, the effect of veldoreotide acetate on the reduction of surface tension was at the same range for all concentrations tested.
# The data of table 4 show the surface activity of highly concentrated COR005 acetate (200 mg/ml), with or without additives in WFI, which emulates the preparation conditions of the primary emulsion of the microspheres. The results of Test 1 and 2 (Table 4) show the effect of COR005 acetate on the surface tension of water. When COR005 acetate is dissolved in water the surface tension is reduced by about 36%, from 68.5 dyne/cm for the water alone to 44 dyne/cm for the solution of water with CR005 acetate at 200 mg/ml.
# [6] = 0.1 mg/kg, IR, SC 0.1 mg/Kg, DEX:PEP 5:1 saline
# [7] = 0.1 mg/kg, IR, SC 0.1 mg/Kg, Lactic acid buffer
# [8] = 0.4 mg/kg, IR, SC 0.4 mg/Kg, DEX:PEP 5:1 saline
# [9] = 0.4 mg/kg, IR, SC 0.4 mg/Kg, HPB:PEP 15:1 saline
# [10] = 0.4 mg/kg, IR, SC 0.4 mg/Kg, Lactic acid buffer
# [11] = 1.4 mg/ml in DDW pH 4.5, 25° C.
# [12] = 102 mg/ml in DDW pH 4.5, 25° C.
# [13] = 200 mg/ml + 50 mg/ml HPBCD in WFI (HPB:PEP 1:4), 5° C.
# [14] = 200 mg/ml + 100 mg/ml HPBCD in WFI (HPB:PEP 1:2), 5° C.
# [15] = 200 mg/ml in 5% Dextrose in WFI (DEX:PEP 1:8), 5° C.
smiles,measurement,setting,value
"C[C@@H](O)[C@@H]1NC(=O)[C@H](CCCCN)NC(=O)[C@@H](Cc2c[nH]c3ccccc23)NC(=O)[C@H](Cc2c[nH]c3ccccc23)NC(=O)[C@H](Cc2ccccc2)NC(=O)CCCNC(=O)CCCN(CC(N)=O)C(=O)[C@H](Cc2ccccc2)NC1=O [Veldoreotide Acetate, Cyclo(-γ-aminobutyryl-L-phenylalanyl-L-tryptophanyl-D-tryptophanyl-L-lysyl-L-threonyl-L-phenylalanyl-N-carbamoylmethyl-γ-aminobutyryl), acetate salt]",Surface tension (dyne/cm),[1]; HPB:PEP 1:4,39 dyne/cm
same,Surface tension (dyne/cm),[1]; no additive,34 dyne/cm
same,Cmax,"[2]; 3 mg/kg, Rats Cmax (ng/ml)",544 ng/mL
same,bioavailability,"[2]; 3 mg/kg, pH 4, Rats BA (F %)",83%
same,Cmax,"[2]; 3 mg/kg, pH 4, Rats Cmax (ng/ml)",345 ng/mL
same,bioavailability,"[2]; […], Rats BA (F %)",82%
same,bioavailability,"[2]; pH 4, Rats BA (F %)",70%
same,Cmax,"[2]; pH 4, Rats Cmax (ng/ml)",350 ng/mL
same,hydrophilic lipophilic balance (HLB),[3],6
same,Cmax,"[4]; 0.1 mg/kg, IR, SC, 0.1 mg/Kg, DEX:PEP 5:1 saline",53 ng/mL
same,AUC(0-t),[4]; [6],53 ng·h/mL
same,Tmax,[4]; [6],60 min
same,AUC(0-t),[4]; [7],26 ng·h/mL
same,Tmax,[4]; [7],30 min
same,Cmax,"[4]; 0.1 mg/kg, pH 4, IR, Lactic acid buffer pH 4",29 ng/mL
same,AUC(0-t),[4]; [8],205 ng·h/mL
same,Tmax,[4]; [8],30 min
same,AUC(0-t),[4]; [9],198 ng·h/mL
same,Tmax,[4]; [9],15 min
same,AUC(0-t),[4]; [10],161 ng·h/mL
same,Tmax,[4]; [10],60 min
same,% change in surface tension compared to baseline,[5]; [11],−30%
same,Density (g/ml) Weighted 1 ml,[5]; [11],0.986 g/mL
same,Surface tension (dyne/cm) capillary method,[5]; [11],45.2 dyne/cm
same,density of DDW solution,"[5]; 1.4 mg/ml to 21.5 mg/ml, starting density of DDW 1.003 g/ml",0.986 to 0.998 g/mL
same,% change in surface tension compared to baseline,"[5]; 12 mg/ml in DDW pH 4.5, 25° C.",−28%
same,Density (g/ml) Weighted 1 ml,"[5]; 12 mg/ml in DDW pH 4.5, 25° C.",0.994 g/mL
same,Surface tension (dyne/cm) capillary method,"[5]; 12 mg/ml in DDW pH 4.5, 25° C.",46.9 dyne/cm
same,% change in surface tension compared to baseline,"[5]; 21 mg/ml in DDW pH 4.5, 25° C.",−27%
same,Density (g/ml) Weighted 1 ml,"[5]; 21 mg/ml in DDW pH 4.5, 25° C.",0.998 g/mL
same,Surface tension (dyne/cm) capillary method,"[5]; 21 mg/ml in DDW pH 4.5, 25° C.",47.1 dyne/cm
same,% change in surface tension compared to baseline,"[5]; 45 mg/in DDW pH 4.5, 25° C.",−29%
same,Density (g/ml) Weighted 1 ml,"[5]; 45 mg/in DDW pH 4.5, 25° C.",1.003 g/mL
same,Surface tension (dyne/cm) capillary method,"[5]; 45 mg/in DDW pH 4.5, 25° C.",45.97 dyne/cm
same,% change in surface tension compared to baseline,[5]; [12],−24%
same,Density (g/ml) Weighted 1 ml,[5]; [12],1.015 g/mL
same,Surface tension (dyne/cm) capillary method,[5]; [12],49.3 dyne/cm
same,% change in surface tension compared to baseline,[5]; [13],−34%
same,Density (g/ml) Weighted 1 ml,[5]; [13],1.04 g/mL
same,Surface tension (dyne/cm) capillary method,[5]; [13],45 dyne/cm
same,% change in surface tension compared to baseline,[5]; [14],−26%
same,Density (g/ml) Weighted 1 ml,[5]; [14],1.12 g/mL
same,Surface tension (dyne/cm) capillary method,"[5]; 200 mg/ml + 100 mg/ml HPBCD in WFI (HPB:PEP 1:2), 5° C., acetate salt",51 dyne/cm
same,Surface tension (dyne/cm) capillary method,"[5]; 200 mg/ml + 100 mg/ml HPBCD in WFI (HPB:PEP 1:2), 5° C., listed as peptide, acetate salt",52 dyne/cm and 51 dyne/cm
same,% change in surface tension compared to baseline,[5]; [15],−14%
same,Density (g/ml) Weighted 1 ml,[5]; [15],1.03 g/mL
same,Surface tension (dyne/cm) capillary method,"[5]; 200 mg/ml in 5% Dextrose in WFI (DEX:PEP 1:8), 5° C., acetate salt",54 dyne/cm
same,Surface tension (dyne/cm) capillary method,"[5]; 200 mg/ml in 5% Dextrose in WFI (DEX:PEP 1:8), 5° C., listed as peptide, acetate salt",54 dyne/cm
same,Density (g/ml) Weighted 1 ml,"[5]; 200 mg/ml in WFI, 5° C.",1.03 g/mL
same,Surface tension (dyne/cm) capillary method,"[5]; 200 mg/ml in WFI, 5° C.",44 dyne/cm
same,% change in surface tension compared to baseline,"[5]; 200 mg/ml in WFI, 5° C., acetate salt",−36%
same,% change in surface tension compared to baseline,"[5]; 200 mg/ml in WFI, 5° C., listed as COR005 acetate, acetate salt",about 36%
same,surface tension of DDW solution,"[5]; DDW pH 5.0, 25° C., baseline 64.9 dyne/cm (text summary, concentration not specified), acetate salt",about 45 dyne/cm
same,reduction of surface tension of water,"[5]; DDW, 25° C., baseline 64.9 dyne/cm, acetate salt",30%
same,pH of DDW solution,"[5]; all concentrations, DDW pH 5.0 before",4.5
